Test results taken from ChEMBL document CHEMBL4376834, “Discovery of 4H-Chromen-4-one Derivatives as a New Class of Selective Rho Kinase (ROCK) Inhibitors, which Showed Potent Activity in ex Vivo Diabetic Retinopathy Models” (J Med Chem, 2019).

Experiments:
[1] = biological target: Leukocyte tyrosine kinase receptor (Homo sapiens, UniProt P29376); assay: Inhibition of recombinant human LTK (450 to end residues) using GEEPLYWSFPAKK as substrate after 40 mins in presence of [gamma-33ATP] by radiometric scintillation counting analysis
[2] = biological target: Serine/threonine-protein kinase/endoribonuclease IRE1 (Homo sapiens, UniProt O75460); assay: Inhibition of human recombinant IRE1 (465 to end residues) using myelin basic protein as substrate after 40 mins by [gamma-33ATP] by radiometric scintillation counting analysis
[3] = biological target: Rho-associated protein kinase 1 (Homo sapiens, UniProt Q13464); assay: Inhibition of recombinant human ROCK1 (17 to 535 residues) using […] as substrate incubated for 40 mins in presence of [gamma-33P]ATP and 10 uM ATP by radiometric scintillation counting analysis
[4] = biological target: Serine/threonine-protein kinase D1 (Homo sapiens, UniProt Q15139); assay: Inhibition of recombinant full-length human PKCmu R135A mutant using KKLNRTLSVA as substrate incubated for 40 mins in presence of [gamma33P]ATP by radiometric scintillation counting analysis
Chain of Serine/threonine-protein kinase D1 (Q15139 whole entry): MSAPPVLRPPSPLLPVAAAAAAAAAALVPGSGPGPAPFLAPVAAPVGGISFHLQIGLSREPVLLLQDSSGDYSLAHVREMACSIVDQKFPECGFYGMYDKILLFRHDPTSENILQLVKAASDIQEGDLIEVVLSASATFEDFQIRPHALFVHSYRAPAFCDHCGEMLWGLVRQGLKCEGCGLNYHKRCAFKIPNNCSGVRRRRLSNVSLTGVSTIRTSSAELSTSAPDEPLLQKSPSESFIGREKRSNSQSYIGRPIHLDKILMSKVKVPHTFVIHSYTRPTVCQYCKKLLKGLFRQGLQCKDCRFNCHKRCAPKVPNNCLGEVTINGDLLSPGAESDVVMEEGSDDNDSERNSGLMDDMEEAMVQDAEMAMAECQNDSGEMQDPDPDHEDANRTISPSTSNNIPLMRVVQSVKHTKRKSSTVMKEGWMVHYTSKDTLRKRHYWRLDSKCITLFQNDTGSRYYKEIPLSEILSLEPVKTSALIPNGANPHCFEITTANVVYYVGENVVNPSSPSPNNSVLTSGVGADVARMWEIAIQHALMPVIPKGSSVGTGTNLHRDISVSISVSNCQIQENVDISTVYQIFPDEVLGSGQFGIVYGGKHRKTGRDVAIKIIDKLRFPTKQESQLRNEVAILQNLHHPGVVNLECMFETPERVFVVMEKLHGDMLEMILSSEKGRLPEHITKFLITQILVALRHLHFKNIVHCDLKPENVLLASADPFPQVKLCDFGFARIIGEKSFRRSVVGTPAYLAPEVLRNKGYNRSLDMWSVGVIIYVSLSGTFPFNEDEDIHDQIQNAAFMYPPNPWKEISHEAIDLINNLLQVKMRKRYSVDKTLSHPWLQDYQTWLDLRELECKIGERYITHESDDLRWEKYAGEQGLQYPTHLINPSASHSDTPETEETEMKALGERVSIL

[5] = Inhibition of recombinant full-length human ATR/ATRIP M211T mutant using GST-cMyc-p53 as substrate incubated for 40 mins by fluorescence assay
[6] = biological target: Serine/threonine-protein kinase Sgk1 (Homo sapiens, UniProt O00141, S422D); assay: Inhibition of recombinant human SGK S422D mutant (60 to end residues) using GRPRTSSFAEGKK as substrate incubated for 40 mins in presence of [gamma33P]ATP by radiometric scintillation counting analysis
Chain of Serine/threonine-protein kinase Sgk1 (O00141 whole entry S422D, the tested form may be a part): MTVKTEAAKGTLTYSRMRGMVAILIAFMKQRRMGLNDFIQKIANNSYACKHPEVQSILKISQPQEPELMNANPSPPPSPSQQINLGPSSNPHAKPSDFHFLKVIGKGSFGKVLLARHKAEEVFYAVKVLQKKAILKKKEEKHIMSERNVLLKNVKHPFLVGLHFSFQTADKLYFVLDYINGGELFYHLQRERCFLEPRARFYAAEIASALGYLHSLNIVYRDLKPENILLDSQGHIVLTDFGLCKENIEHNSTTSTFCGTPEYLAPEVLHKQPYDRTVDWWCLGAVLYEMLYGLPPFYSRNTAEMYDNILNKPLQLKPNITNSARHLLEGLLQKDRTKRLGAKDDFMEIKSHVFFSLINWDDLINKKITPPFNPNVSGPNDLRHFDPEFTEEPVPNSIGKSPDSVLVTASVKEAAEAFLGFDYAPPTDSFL

[7] = biological target: Ephrin type-A receptor 5 (Homo sapiens, UniProt P54756); assay: Inhibition of recombinant human EphA5 (655 to 956 residues) using poly(Glu, Tyr) 4:1 as substrate measured after 40 mins in presence of [gamma33ATP] by radiometric scintillation counting analysis
Chain of Ephrin type-A receptor 5 (P54756 whole entry, the tested form may be a part): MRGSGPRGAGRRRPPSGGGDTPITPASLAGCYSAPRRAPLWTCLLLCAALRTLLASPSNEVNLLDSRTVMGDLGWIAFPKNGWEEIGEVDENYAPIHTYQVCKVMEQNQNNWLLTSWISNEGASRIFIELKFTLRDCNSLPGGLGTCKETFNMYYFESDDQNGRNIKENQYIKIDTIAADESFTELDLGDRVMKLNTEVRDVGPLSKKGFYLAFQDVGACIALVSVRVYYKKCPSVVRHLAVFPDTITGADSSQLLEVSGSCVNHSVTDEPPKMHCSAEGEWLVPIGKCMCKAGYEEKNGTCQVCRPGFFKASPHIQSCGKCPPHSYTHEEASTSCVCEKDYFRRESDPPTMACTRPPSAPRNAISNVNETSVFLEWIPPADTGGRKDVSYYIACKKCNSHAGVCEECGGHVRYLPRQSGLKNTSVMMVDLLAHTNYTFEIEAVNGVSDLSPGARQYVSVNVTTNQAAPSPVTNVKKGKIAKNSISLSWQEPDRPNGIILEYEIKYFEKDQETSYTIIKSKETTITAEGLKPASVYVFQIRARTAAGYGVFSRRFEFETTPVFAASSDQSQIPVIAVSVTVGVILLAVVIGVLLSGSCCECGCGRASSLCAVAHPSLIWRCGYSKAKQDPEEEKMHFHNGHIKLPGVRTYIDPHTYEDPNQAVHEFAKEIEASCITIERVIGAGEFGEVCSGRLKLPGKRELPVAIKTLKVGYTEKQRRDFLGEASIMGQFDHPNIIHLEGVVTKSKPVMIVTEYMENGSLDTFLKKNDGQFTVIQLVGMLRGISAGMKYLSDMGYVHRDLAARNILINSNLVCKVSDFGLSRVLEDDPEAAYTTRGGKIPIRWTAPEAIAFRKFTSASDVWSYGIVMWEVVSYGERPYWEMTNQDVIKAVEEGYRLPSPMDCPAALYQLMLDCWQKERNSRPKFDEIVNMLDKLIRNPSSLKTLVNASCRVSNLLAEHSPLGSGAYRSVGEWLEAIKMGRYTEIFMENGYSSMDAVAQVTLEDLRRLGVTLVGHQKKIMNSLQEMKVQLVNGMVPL

[8] = biological target: Mitogen-activated protein kinase kinase kinase kinase 4 (Homo sapiens, UniProt O95819); assay: Inhibition of recombinant human MAP4K4 (1 to 328 residues) using RLGRDKYKTLRQI as substrate incubated for 40 mins in presence of [gamma-33ATP by radiometric scintillation counting analysis
[9] = biological target: Eukaryotic translation initiation factor 2-alpha kinase 1 (Homo sapiens, UniProt Q9BQI3); assay: Inhibition of human recombinant HRI (140 to end residues) using RSRSRSRSRSRSR as substrate after 120 mins by [gamma-33ATP] radiometric assay
Chain of Eukaryotic translation initiation factor 2-alpha kinase 1 (Q9BQI3 whole entry): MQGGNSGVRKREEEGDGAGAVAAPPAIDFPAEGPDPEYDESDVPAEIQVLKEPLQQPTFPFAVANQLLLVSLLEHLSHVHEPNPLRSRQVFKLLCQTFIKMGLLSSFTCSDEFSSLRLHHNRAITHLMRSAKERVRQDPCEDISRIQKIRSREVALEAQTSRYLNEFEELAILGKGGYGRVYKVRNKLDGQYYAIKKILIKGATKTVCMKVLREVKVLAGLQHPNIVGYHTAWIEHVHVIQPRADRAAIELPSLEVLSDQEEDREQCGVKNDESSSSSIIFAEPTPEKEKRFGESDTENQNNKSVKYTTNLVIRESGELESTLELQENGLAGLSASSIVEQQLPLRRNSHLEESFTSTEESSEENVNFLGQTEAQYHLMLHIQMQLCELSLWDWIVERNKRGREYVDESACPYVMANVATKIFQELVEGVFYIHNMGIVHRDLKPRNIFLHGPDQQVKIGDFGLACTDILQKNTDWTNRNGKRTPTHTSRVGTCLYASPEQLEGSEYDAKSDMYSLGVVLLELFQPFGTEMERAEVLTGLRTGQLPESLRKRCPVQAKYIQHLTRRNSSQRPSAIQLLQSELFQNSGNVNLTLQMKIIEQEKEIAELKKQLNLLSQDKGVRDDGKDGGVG

[10] = biological target: Mast/stem cell growth factor receptor Kit (Homo sapiens, UniProt P10721, D816V); assay: Inhibition of recombinant human C-Kit D816V mutant (544 to end residues) using poly(Glu, Tyr) 4:1 as substrate incubated 40 mins in presence of [gamma-33ATP] by radiometric scintillation counting analysis
[11] = biological target: TRAF2 and NCK-interacting protein kinase (Homo sapiens, UniProt Q9UKE5); assay: Inhibition of human TNIK (1 to 367 residues) using RLGRDKYKTLRQI as substrate incubated for 40 mins in presence of [gamma33P]ATP by radiometric scintillation counting analysis
[12] = biological target: Tyrosine-protein kinase ITK/TSK (Homo sapiens, UniProt Q08881); assay: Inhibition of human recombinant Itk (352 to 617 residues) using myelin basic protein as substrate after 40 mins by [gamma-33ATP] by radiometric scintillation counting analysis
[13] = Half life in human liver microsomes measured upto 45 mins in presence of NADPH by LC-MS analysis; type: ADME, Microsome
[14] = biological target: Serine/threonine-protein kinase WNK1 (Homo sapiens, UniProt Q9H4A3); assay: Inhibition of recombinant human WNK1 (1 to 491 residues) using myelin basic protein as substrate incubated for 40 mins in presence of [gamma33P]ATP by radiometric scintillation counting analysis
[15] = biological target: Serine/threonine-protein kinase 32B (Homo sapiens, UniProt Q9NY57); assay: Inhibition of recombinant human full length STK32B using casein as substrate incubated for 40 mins in presence of [gamma33P]ATP by radiometric scintillation counting analysis
[16] = biological target: Tyrosine-protein kinase JAK1 (Homo sapiens, UniProt P23458); assay: Inhibition of human recombinant JAK1 (866 to end residues) using GEEPLYWSFPAKK as substrate after 40 mins by [gamma-33ATP] by radiometric scintillation counting analysis
[17] = biological target: Testis-specific serine/threonine-protein kinase 4 (Homo sapiens, UniProt Q6SA08); assay: Inhibition of recombinant full-length human TSSK4 using KKLNRTLSFAEPG as substrate incubated for 40 mins in presence of [gamma33P]ATP by radiometric scintillation counting analysis
Chain of Testis-specific serine/threonine-protein kinase 4 (Q6SA08 whole entry): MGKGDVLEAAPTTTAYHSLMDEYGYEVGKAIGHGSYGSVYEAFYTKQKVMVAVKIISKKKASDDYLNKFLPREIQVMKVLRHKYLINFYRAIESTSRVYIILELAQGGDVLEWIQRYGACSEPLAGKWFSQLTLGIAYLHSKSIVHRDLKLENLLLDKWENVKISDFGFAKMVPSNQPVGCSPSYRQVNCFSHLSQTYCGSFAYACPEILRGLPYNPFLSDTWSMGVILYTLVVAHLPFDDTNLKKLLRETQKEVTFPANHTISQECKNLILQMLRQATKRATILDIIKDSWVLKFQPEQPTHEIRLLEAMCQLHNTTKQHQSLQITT

[18] = biological target: cGMP-dependent protein kinase 1 (Homo sapiens, UniProt Q13976); assay: Inhibition of recombinant full length human PKG1beta using RRRLSFAEPG as substrate incubated for 40 mins in presence of [gamma-33P]ATP by radiometric scintillation counting analysis
[19] = biological target: Testis-specific serine/threonine-protein kinase 1 (Homo sapiens, UniProt Q9BXA7); assay: Inhibition of recombinant full-length human TSSK1 using KKKVSRSGLYRSP as substrate incubated for 40 mins in presence of [gamma33P]ATP by radiometric scintillation counting analysis
Chain of Testis-specific serine/threonine-protein kinase 1 (Q9BXA7 whole entry, the tested form may be a part): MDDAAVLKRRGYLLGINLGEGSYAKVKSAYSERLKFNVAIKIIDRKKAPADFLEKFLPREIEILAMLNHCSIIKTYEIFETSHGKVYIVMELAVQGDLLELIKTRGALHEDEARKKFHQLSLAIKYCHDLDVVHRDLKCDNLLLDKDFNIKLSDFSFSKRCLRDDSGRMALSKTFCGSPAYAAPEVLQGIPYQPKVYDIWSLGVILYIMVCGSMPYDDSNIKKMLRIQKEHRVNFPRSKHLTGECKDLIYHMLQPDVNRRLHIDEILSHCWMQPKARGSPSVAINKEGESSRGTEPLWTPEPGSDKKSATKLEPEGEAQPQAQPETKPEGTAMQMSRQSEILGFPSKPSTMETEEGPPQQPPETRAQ

[20] = biological target: Ephrin type-A receptor 4 (Homo sapiens, UniProt P54764); assay: Inhibition of recombinant human EphA4 (601 to 892 residues) using poly(Glu, Tyr) 4:1 as substrate measured after 40 mins in presence of [gamma33ATP] by radiometric scintillation counting analysis
[21] = biological target: Tyrosine-protein kinase BTK (Homo sapiens, UniProt Q06187); assay: Inhibition of recombinant full length human BTK using KVEKIGEGTYGVV substrate incubated for 40 mins in presence of [gamma-33ATP] by radiometric scintillation counting analysis
Chain of Tyrosine-protein kinase BTK (Q06187 whole entry): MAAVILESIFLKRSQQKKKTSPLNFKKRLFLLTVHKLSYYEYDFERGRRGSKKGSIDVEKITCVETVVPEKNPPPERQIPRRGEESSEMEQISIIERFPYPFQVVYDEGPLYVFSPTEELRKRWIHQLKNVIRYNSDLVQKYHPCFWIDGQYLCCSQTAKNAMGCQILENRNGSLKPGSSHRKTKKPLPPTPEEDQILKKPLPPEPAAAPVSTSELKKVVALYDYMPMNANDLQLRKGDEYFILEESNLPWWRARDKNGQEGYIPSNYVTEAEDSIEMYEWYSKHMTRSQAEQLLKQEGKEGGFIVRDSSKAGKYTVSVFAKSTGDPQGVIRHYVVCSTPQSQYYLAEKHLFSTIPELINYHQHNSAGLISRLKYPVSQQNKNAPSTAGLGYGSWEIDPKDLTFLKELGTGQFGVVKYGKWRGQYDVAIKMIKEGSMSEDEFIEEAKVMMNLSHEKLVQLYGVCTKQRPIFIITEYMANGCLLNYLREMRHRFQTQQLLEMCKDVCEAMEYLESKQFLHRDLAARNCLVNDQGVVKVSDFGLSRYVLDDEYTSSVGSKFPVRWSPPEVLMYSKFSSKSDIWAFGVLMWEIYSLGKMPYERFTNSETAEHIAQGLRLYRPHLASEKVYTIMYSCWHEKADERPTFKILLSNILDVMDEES

[22] = biological target: Vascular endothelial growth factor receptor 2 (Homo sapiens, UniProt P35968); assay: Inhibition of human recombinant KDR (790 to end residues) using myelin basic protein as substrate after 40 mins by [gamma-33ATP] by radiometric scintillation counting analysis
[23] = biological target: ALK tyrosine kinase receptor (Homo sapiens, UniProt Q9UM73); assay: Inhibition of human recombinant ALK (1058 to end residues) using KKKSPGEYVNIEF as substrate incubated for 40 mins in presence of [gamma-33P]ATP by radiometric scintillation counting analysis
[24] = biological target: Serine/threonine-protein kinase 25 (Homo sapiens, UniProt O00506); assay: Inhibition of recombinant human STK25 (1 to 308 residues) using RLGRDKYKTLRQI as substrate incubated for 40 mins in presence of [gamma33P]ATP by radiometric scintillation counting analysis
[25] = biological target: [Pyruvate dehydrogenase (acetyl-transferring)] kinase isozyme 4, mitochondrial (Homo sapiens, UniProt Q16654); assay: Inhibition of recombinant human full length PDHK4 using KKKYHGHSMSDPG as substrate incubated for 40 mins in presence of [gamma33P]ATP by radiometric scintillation counting analysis
Chain of [Pyruvate dehydrogenase (acetyl-transferring)] kinase isozyme 4, mitochondrial (Q16654 whole entry): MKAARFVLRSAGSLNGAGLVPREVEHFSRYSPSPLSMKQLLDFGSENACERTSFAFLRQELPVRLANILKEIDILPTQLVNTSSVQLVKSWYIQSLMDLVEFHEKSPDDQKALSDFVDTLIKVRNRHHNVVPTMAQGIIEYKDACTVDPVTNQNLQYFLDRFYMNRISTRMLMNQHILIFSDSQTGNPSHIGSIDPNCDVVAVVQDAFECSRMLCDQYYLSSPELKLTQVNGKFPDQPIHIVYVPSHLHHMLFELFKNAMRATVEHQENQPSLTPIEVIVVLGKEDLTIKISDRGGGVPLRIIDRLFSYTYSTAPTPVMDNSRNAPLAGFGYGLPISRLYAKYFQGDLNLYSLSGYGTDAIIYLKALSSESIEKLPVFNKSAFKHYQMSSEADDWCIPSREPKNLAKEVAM

[26] = biological target: Casein kinase 2 (Homo sapiens, UniProt P67870+P68400+P19784+Q8NEV1); assay: Inhibition of recombinant human CK2 in presence of [gamma-33ATP] by radiometric scintillation counting analysis; type: protein assay

With CN(C)c1ccc(C(=O)Nc2cccc(NC(=O)COc3ccc4c(=O)ccoc4c3)c2)cc1 the IC50 [1] was greater than 10 µM, the IC50 [2] was greater than 10 µM and the IC50 [3] was 0.014 µM. For the same compound, the IC50 [4] was greater than 10 µM, the IC50 [5] was greater than 10 µM and the IC50 [6] was greater than 10 µM. The IC50 [7] was greater than 10 µM, the IC50 [8] was greater than 10 µM and the IC50 [9] was greater than 10 µM. It also gave an IC50 [10] greater than 10 µM, an IC50 [11] greater than 10 µM and an IC50 [12] greater than 10 µM. The half-life [13] was 8.05 min, the IC50 [14] was greater than 10 µM and the IC50 [15] was greater than 10 µM. For the same compound, the IC50 [16] was greater than 10 µM, the IC50 [17] was greater than 10 µM and the IC50 [18] was 0.66 µM. It also gave an IC50 [19] greater than 10 µM, an IC50 [20] greater than 10 µM and an IC50 [21] greater than 10 µM. For the same compound, the IC50 [22] was greater than 10 µM, the IC50 [23] was greater than 10 µM and the IC50 [24] was greater than 10 µM. For the same compound, the IC50 [25] was greater than 10 µM and the IC50 [26] was greater than 10 µM.
